Data taken from patent publication US8299097B2, “Methods for treating inflammatory disorders” (The Brigham and Women's Hospital, Inc., priority 2008, dated 2012).

Experiments:
[1] = system: human blood platelets; test: Platelet activation, cytofluorographic detection of P-selectin (CD62P); assay type: cell-based; settings: ADP 100 μM or LTE4 1 μM, 10 min
Description: FIG. 6. […] Each antibody (Ab) was diluted in 50 μl of sterile saline. […] 6A. PAS stains of the lungs of representative mice treated with isotype control (top) or with an anti-CD42 platelet-depleting antibody (bottom). 6B. Inflammation (top) and goblet cell metaplasia (bottom) in the lungs of mice treated with the indicated LT and antibody. A cohort of mice was treated with clopidogrel as indicated. Results in 6B are from a single experiment with 5 mice per group. […] 6C. […] Results are from a single experiment performed three times on different donors.
Platelets accumulate in the lungs of asthmatic individuals (Jeffery, P. K., et al. 1989. Am. Rev. Respir. Dis. 140:1745-1753), and are also recruited to the lungs of ovalbumin sensitized and challenged mice by an IgE-dependent mechanism (Pitchford, S. C., et al. 2008. Am. J. Respir. Crit. Care Med. 177:604-612).

[2] = biological target: P2Y12 receptors (Mus musculus, UniProt Q9CPV9); test: Clopidogrel effect on LTE4-mediated amplification of OVA-induced pulmonary inflammation; assay type: in vivo; design: from tissue; host or cells: whole animal: BALB/c (OVA model) and C57BL/6 (Der f model) mice; settings: whole lung RNA 24 h after last OVA challenge
Chain of P2Y12 receptors (Q9CPV9 whole entry): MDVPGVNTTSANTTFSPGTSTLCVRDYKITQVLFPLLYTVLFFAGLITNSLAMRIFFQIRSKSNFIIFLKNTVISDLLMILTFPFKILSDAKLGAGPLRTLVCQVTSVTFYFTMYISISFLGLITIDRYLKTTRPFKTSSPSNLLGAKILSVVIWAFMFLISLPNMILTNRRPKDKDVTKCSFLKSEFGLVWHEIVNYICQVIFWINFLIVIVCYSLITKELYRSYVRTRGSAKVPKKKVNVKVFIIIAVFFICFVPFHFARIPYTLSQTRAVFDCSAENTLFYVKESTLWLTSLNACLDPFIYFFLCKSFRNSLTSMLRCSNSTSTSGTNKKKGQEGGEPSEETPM
Description: FIG. 4. […] 4A. […] Clopidogrel (500 μg/ml) was added to the drinking water of the indicated groups of mice for 72 h before the first intranasal dose of LTs, and was maintained throughout the treatment. Results are mean±SEM from at least 9 mice in each group. The experiments were repeated three times with similar results. 4B. PAS stains (left column) from representative mice in the indicated groups showing the effect of clopidigrel on goblet cell metaplasia. Higher magnification images of H & E stains (right) from the same animals showing cellular characteristics of the bronchovascular infiltrates. 4C. Effect of clopidogrel administration on the steady-state expression of IL-13 and MUC5AC mRNA as determined by real-time PCR of whole lung RNA extracted 24 h after the last OVA challenge of the indicated groups. Data are mean±SEM from 4-5 mice/group from a single experiment. Results in a second experiment were similar 4D-4F. […] 4D. Total cell numbers (top), percentages of eosinophils (middle), and total numbers of eosinophils in BAL fluid recovered 24 h after the last challenge with OVA. 4E. Goblet cell metaplasia (top) and representative PAS stains (bottom) from wild-type and p2ry12^−/− mice subjected to the same protocol. 4E. Inflammation scores from the same mice. Data in 4D-4F are from 4 mice per group. Results in a second experiment were similar 4G. BALB/c Cysltr1/Cysltr2^−/− mice and age-matched WT controls were subjected to the same protocol as the p2ry12^−/− mice. Total cell numbers (top), percentages of eosinophils (middle), and total numbers of eosinophils in BAL fluid recovered 24 h after the last challenge with OVA. Results are from 6 mice per group. Three experiments were performed with similar results. 4H. Goblet cell numbers (top) and representative PAS stains (bottom). 4I. Quantitative assessment of bronchovascular inflammation as determined by H & E stains. Results are from 6 mice/group.
FIG. 5. Effect of clopidogrel on LTE4-mediated amplification of pulmonary inflammation. 5A. […] The indicated mice were treated with clopidogrel for 72 h before the first dose of leukotriene. Results are mean±SEM from a minimum of 9 mice in each group. 5B. PAS stains (left column) from representative mice in the indicated groups showing the effect of clopidigrel on goblet cell metaplasia. Higher magnification images of H & E stains (right) from the same animals showing cellular characteristics of the bronchovascular infiltrates. 5C. Effect of clopidogrel administration on the steady-state expression of IL-13 and MUC5AC mRNA as determined by real-time PCR of whole lung RNA extracted 24 h after the last OVA challenge of the indicated groups. Data are mean±SEM from 4-5 mice/group. […]

SMILES: CCCCC/C=C\C\C=C/C=C/C=C/[C@@H](SC[C@H](N)C(=O)O)[C@@H](O)CCCC(=O)O [LTE4]
- CD62P expression by platelets [1]: no CD62P expression was detected
- lung expression of IL-13 and MUC5AC mRNA (real-time PCR) [2]: tended to increase the expression of both transcripts
